Measured values from US7846697B2, “Method of producing a low molecular weight organic compound in a cell” (BLMaps, priority 2003, dated 2010).

Key:
[1] = Halkier and Møller, 1989; cited from earlier work

| SMILES | stability in aqueous solutions [1] | toxicity to microbial organisms compared with the aglycon vanillin (microbial organisms) |
| --- | --- | --- |
| N#CC(O)c1ccc(O)cc1 (centres unmarked) [p-hydroxymandelonitrile] | highly unstable | – |
| COc1cc(C=O)ccc1O[C@@H]1O[C@H](CO)[C@@H](O)[C@H](O)[C@H]1O [vanillin glucoside, vanillin-β-D-glucoside] | – | much less toxic |
